Assay [1] relates to male rats with cytopenia. Nature of the assay: Hemostimulating activity: general blood analysis of rats with cyclophosphane cytopenia. The class given is in vivo. The settings on record: for hemostimulating effect (in words): rats with cyclophosphane cytopenia, summary of Tables 5-7; for ESR / Erythrocytes / Leukocytes / Lymphoctes / Reticulocytes / Segmented neutrophils / Thrombocytes / Lymphocytes: rats, acetylcysteine 9.5, lithium carbonate 3, aC-Li 10, Cu-aC-Li:aC-Li 10 mg/kg. The procedure: The study was carried out on random-bred male white rats weighing 140-160 g, which were given a single subcutaneous injection of cyclophosphane in a dose of 100 mg/kg in physiological saline.
No. 3—animals which had received an injection of cyclophosphane and to which Cu-aC-Li:aC-Li in physiological saline was then administered in a dose of 10 mg/kg as a therapeutic means (amount of coordination compound 7.8×10^−8 M/kg);
No. 4—animals which had received an injection of cyclophosphane and to which aC-Li in physiological saline was then administered in a dose of 10 mg/kg as a therapeutic means;
No. 6—animals which had received an injection of cyclophosphane and to which acetylcysteine in physiological saline was then administered in a dose of 9.5 mg/kg as a therapeutic means (the amount of acetylcysteine was calculated on the basis of the proportion by weight of acetylcysteine (˜0.95) in 10 mg of […], which corresponds to 9.5 mg of the hydrogenated form of acetylcysteine).
The test preparations were administered on the third day after the administration of cyclophosphane.
Blood for hematological investigations was taken from the caudal vein 3, 7 and 14 days after administration of CP. At the end of each series (3, 7 and 14 days), the experimental animals were euthanized by an overdose of ether and blood was obtained from the caudal vein and bone marrow from the femur.
This study assessed the cellularity of the blood (the number of erythrocytes, thrombocytes, leukocytes, lymphocytes and neutrophils, and also the ESR) and bone marrow on 7-day administration of the test compounds to hemodepressed animals.

The test system of assay [2] is A431 line human epidermoid carcinoma cells. In words: Proliferative activity and death of A431 cells (cell count, propidium iodide flow cytofluorimetry). Conditions: for Proportion of dead cells / Total cells: A431, EGF 200 ng/ml. Format: cell-based. The method, then: The number of living and dead cells in a culture was determined after 24 and 48 hours.
A431 line human epidermoid carcinoma cells, obtained from the All-Russian Cell Culture Collection (Russian Academy of Sciences Institute of Cytology, St. Petersburg).
Cells are cultured in a CO2 incubator (New Brunswick Scientific) at +37° C. and with a CO2 content of 5%. Cells are grown in these conditions to a monolayer culture and are exposed to the action of the test compounds.
The DMEM medium (OOO PanEko, Moscow) with the addition of gentamicin K (80 mg/l), L-glutamine (300 mg/l) and fetal serum (PAA, Austria) to a final concentration of 10%, is used for culturing cells. Cells are transferred to a medium with a reduced serum content of 0.5% 24 hours before commencing an experiment.
The cells were then suspended by pipetting with an automatic pipette and were combined with the previously collected medium. Samples were centrifuged at room temperature for 5 min at 400 g, the supernatant was removed and the deposit was resuspended in pH 7.4 PBS phosphate-salt buffer.
Propidium iodide was added to a suspension of cells to a concentration of 50 μg/ml 5-10 min before measuring in a Bruker ACR 1000 flow cytofluorimeter. This stain is able to penetrate through a damaged cell membrane, and stained cells are dead.

Assay [3] deals with mice with hyperglycemia caused by glucose. Nature of the assay: Glucose loading test, blood sugar level. The class given is in vivo. The settings on record: insulin 0.3 units/kg subcutaneously. The procedure: the glucose loading test (reduction in the sugar content in animals with hyperglycemia, caused by administration of glucose when fasting); Blood was obtained after 1 h by caudal vein puncture and the serum glucose level was determined by the ortho-toluidine method. Experiments to study the effect of the test substances on the blood glucose level were carried out on white mice weighing 17-18 g. The animals were deprived of food from the evening prior to the experiment. […] Immediately after injecting the glucose, the experimental animals were injected subcutaneously with a reference preparation (insulin in a dose of 0.3 units/kg). […] The blood glucose level was determined over a period of 4 hours with intervals of 1 hour.

The mark [4] stands for this setting: day 3 after cyclophosphane 100 mg/kg.
Setting [5] is: day 7 after cyclophosphane 100 mg/kg.
[6] abbreviates: day 14 after cyclophosphane 100 mg/kg.
Setting [7] is: Table 2, age of culture 24 hours, cysteine […], C—Pd […], C—Pd:C […].
Where [8] appears, read: Table 2, age of culture 48 hours, cysteine […], C—Pd […], C—Pd:C […].

Values joined by “and” are separate entries in the source; they are usually repeats but may differ in a detail not shown here. Identical values can stand only once. Marks after values point to notes of the source that are not given here.

Consider `O=C([O-])[O-].[Li+].[Li+]` [Li2HCO3, lithium carbonate], for which, in assay [1], the “hemostimulating effect (in words)” value is listed as “positive trends”. For the same molecule, in assay [1] (setting [4]), the ESR worked out at 2.4 ± 0.42 mm/h, the Erythrocytes is 3.7 ± 0.21 10^12/l, the Leukocytes is 3.75 ± 0.46* 10^9/l and the Lymphoctes was 62 ± 3.8 %. In addition, in assay [1] (setting [4]), the Reticulocytes is listed as 0.118 ± 0.01 %, the Segmented neutrophils is on record as 19.7 ± 3.4 % and the Thrombocytes was 256 ± 45.3 10^9/l. Moreover, in assay [1] (setting [5]), the ESR is 2.0 ± 0.36 mm/h and 3.2 ± 0.80 mm/h; the Erythrocytes was 3.6 ± 0.29 10^12/l and 3.2 ± 0.18 10^12/l; the Leukocytes was 3.22 ± 0.11* 10^9/l and 4.8 ± 0.18** 10^9/l; the Reticulocytes was 1.1 ± 0.1% and 1.2 ± 0.2%. Further, in assay [1] (setting [5]), the Segmented neutrophils was 33 ± 1.7 % and 50.4 ± 0.6 %; the Thrombocytes was 119 ± 12.0** 10^3/l and 164 ± 10.0** 10^3/l. In assay [1] (setting [6]), the ESR is recorded as 2.4 ± 0.65 mm/h, the Erythrocytes is recorded as 4.9 ± 0.27 10^12/l, the Leukocytes is on record as 5.9 ± 0.26** 10^9/l and the Lymphocytes is given as 69.3 ± 0.9%. Also, in assay [1] (setting [6]), the Reticulocytes amounted to 1.4 ± 0.3%, the Segmented neutrophils is 14.9 ± 2.6 % and the Thrombocytes was 401 ± 59.9 10^3/l.

As for `CC(=O)N[C@@H](CS)C(=O)[O-].[Li+]` [aC—Li, lithium salt of acetylcysteine], the “hemostimulating effect (in words)” value in assay [1] is “positive trends”. For the same molecule, in assay [1] (setting [4]), the ESR amounted to 3.3 ± 0.80 mm/h, the Erythrocytes was 4.0 ± 0.23 10^12/l, the Leukocytes was 4.38 ± 0.31* 10^9/l and the Lymphoctes is 45 ± 1.6 %. Moreover, in assay [1] (setting [4]), the Reticulocytes is 0.1 ± 0.1 %, the Segmented neutrophils amounted to 42 ± 1.6 % and the Thrombocytes is 387 ± 17.4 10^9/l. In assay [1] (setting [6]), the ESR turned out to be 2.7 ± 0.49 mm/h, the Erythrocytes was 5.2 ± 0.26 10^12/l, the Leukocytes is given as 5.6 ± 0.22** 10^9/l and the Lymphocytes was 72.5 ± 1.4%. Moreover, in assay [1] (setting [6]), the Reticulocytes was 1.3 ± 0.3%, the Segmented neutrophils came to 20.3 ± 2.4 % and the Thrombocytes was 390 ± 38.3 10^3/l.

On to `CC(=O)N[C@@H](CS)C(=O)O` [acetyl cysteine, acetylcysteine], for which the “hemostimulating effect (in words)” value in assay [1] is on record as “positive trends”. In assay [1] (setting [4]), the ESR turned out to be 2.2 ± 0.30 mm/h, the Erythrocytes is reported as 3.0 ± 0.29 10^12/l, the Leukocytes is given as 3.26 ± 0.31* 10^9/l and the Lymphoctes was found to be 68 ± 2.8 %. Besides, in assay [1] (setting [4]), the Reticulocytes came to 0.09 ± 0.006 %, the Segmented neutrophils came to 17.6 ± 2.1 % and the Thrombocytes is listed as 220 ± 45.3 10^9/l. Besides, in assay [1] (setting [5]), the ESR is recorded as 1.9 ± 0.39 mm/h, the Erythrocytes is on record as 3.1 ± 0.33 10^12/l, the Leukocytes was 3.47 ± 0.08* 10^9/l and the Lymphocytes turned out to be 51.5 ± 1.3 %. Besides, in assay [1] (setting [5]), the Segmented neutrophils is reported as 30 ± 1.8 % and the Thrombocytes was 124 ± 11 10^9/L. Moreover, in assay [1] (setting [6]), the ESR is recorded as 2.1 ± 0.73 mm/h, the Erythrocytes is reported as 4.7 ± 0.21 10^12/l, the Leukocytes is on record as 5.7 ± 0.22** 10^9/l and the Lymphocytes is recorded as 72.1 ± 1.6%. In assay [1] (setting [6]), this molecule registered a Reticulocytes of 1.1 ± 0.4% and a Segmented neutrophils of 13.3 ± 1.9 %.

Turning to “Epidermal growth factor: physiological high-affinity ligand of the EGF receptor”, the “Proportion of dead cells” value in assay [2] (setting [7]) amounted to 19%; in assay [2] (setting [8]) it was 23%; in assay [2] (Table 3, 24 hours), 22%; in assay [2] (Table 3, 48 hours), 29%. Also, the Total cells in assay [2] (setting [7]) is 47300 mL⁻¹; in assay [2] (setting [8]), 68800 mL⁻¹; in assay [2] (Table 3, 24 hours), 52000 mL⁻¹; in assay [2] (Table 3, 48 hours), 71700 mL⁻¹. Also, the “effect on the proliferative activity of A431 cells (in words)” value in assay [2] (summary of Table 2) was “maximum stimulating effect”.

As to Insulin: reference preparation, the Blood sugar level in assay [3] (1 hour) was 1.2 ± 0.1 mmol/L; in assay [3] (2 hours) it was 1.4 ± 0.1 mmol/L; in assay [3] (3 hours), 1.6 ± 0.2 mmol/L; in assay [3] (4 hours) it was 2.0 ± 0.1 mmol/L.

These data come from patent US8575382B2, “Low molecular weight pharmacological activity modulators” (“Ivy Pharm” LLC, priority 2009, dated 2013).
